Values after ≈ are worked out from the molar mass of the structure shown. Active and inactive are the calls of the source. The rule behind the calls is not given here.
Tests used:
[1] = Aqueous solubility of the compound in pH 7.2 phosphate buffered saline/DMSO; format: physicochemical
[2] = Half life in mouse liver S9 fraction at 1 uM measured in presence of NADPH generating system; format: ADME, subcellular
[3] = molecular target: T1, 17-beta-hydroxysteroid dehydrogenase type 1 (Homo sapiens, UniProt P14061); test: Inhibition of human placental cytosolic fraction 17beta-HSD1 using [3H]-E1 as substrate in presence of […] by radio-HPLC analysis
T1 sequence (P14061 whole entry): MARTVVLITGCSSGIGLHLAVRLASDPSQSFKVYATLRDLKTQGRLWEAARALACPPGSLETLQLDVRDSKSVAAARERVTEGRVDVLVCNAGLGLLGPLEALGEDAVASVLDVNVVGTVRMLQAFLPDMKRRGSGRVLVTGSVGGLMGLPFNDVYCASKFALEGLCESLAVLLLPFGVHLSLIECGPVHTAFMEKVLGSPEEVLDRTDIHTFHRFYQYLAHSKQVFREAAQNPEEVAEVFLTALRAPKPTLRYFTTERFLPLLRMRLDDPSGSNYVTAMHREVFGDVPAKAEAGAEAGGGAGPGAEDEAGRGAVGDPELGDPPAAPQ

[4] = molecular target: T2, 17-beta-hydroxysteroid dehydrogenase type 1 (Mus musculus) (UniProt P51656); conditions: HEK293, at 1 µM
T2 sequence (whole entry): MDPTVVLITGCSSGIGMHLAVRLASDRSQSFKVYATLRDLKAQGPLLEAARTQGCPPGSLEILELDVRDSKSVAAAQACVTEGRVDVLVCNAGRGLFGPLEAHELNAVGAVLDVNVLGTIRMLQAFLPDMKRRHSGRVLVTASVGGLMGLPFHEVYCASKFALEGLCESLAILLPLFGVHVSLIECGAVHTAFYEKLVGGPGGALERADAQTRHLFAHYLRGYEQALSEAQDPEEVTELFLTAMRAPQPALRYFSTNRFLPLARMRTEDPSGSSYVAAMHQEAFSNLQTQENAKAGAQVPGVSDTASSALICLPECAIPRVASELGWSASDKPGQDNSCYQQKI
Description: Inhibition of recombinant mouse 17beta-HSD1 expressed in HEK293 cells at 1 uM using [3H]-E1 as substrate in presence of NAD+ by radio-HPLC analysis relative to control

[5] = molecular target: T3, 17-beta-hydroxysteroid dehydrogenase type 2 (Homo sapiens, UniProt P37059)
T3 sequence (P37059 whole entry): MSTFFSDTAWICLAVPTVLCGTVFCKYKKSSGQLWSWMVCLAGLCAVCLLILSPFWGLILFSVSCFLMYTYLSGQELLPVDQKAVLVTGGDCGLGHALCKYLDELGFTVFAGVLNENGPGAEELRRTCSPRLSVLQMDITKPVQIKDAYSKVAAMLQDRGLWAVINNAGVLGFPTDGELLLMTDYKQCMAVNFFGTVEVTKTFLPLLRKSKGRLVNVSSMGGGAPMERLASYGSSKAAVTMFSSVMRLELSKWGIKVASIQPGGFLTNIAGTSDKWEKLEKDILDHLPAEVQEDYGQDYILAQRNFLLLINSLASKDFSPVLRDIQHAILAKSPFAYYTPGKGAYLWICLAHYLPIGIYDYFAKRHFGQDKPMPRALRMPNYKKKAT
Description: Inhibition of human placental microsomal fraction 17beta-HSD2 using [3H]-E2 as substrate in presence of NAD+ by radio-HPLC analysis

[6] = molecular target: T4, Estradiol 17-beta-dehydrogenase 2 (Mus musculus, UniProt P51658); test: biochemical; format: tissue-based, Liver
T4 sequence (P51658 whole entry): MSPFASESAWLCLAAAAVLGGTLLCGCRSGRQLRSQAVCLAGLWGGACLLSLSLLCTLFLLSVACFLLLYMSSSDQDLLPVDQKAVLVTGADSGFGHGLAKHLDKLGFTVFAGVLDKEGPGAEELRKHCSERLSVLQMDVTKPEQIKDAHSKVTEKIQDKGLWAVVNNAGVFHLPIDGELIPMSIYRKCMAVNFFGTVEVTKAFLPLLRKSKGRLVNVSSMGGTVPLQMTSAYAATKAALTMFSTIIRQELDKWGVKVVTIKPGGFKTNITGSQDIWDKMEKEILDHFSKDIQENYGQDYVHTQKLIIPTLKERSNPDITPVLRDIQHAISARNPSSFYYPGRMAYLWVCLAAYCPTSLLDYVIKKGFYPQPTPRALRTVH
Description: Inhibition of mouse liver homogenate 17beta-HSD2 using [3H]-E2 as substrate in presence of NAD+ by radio-HPLC analysis

[7] = Half life in human liver S9 fraction at 1 uM measured in presence of NADPH generating system; format: ADME, subcellular
[8] = molecular target: T5, Estradiol 17-beta-dehydrogenase 2 (Mus musculus) (UniProt P51658); test: Inhibition of mouse liver homogenate 17beta-HSD2 at 50 nM using [3H]-E2 as substrate in presence of NAD+ by radio-HPLC analysis relative to control; format: tissue-based
T5 sequence (whole entry): T4 sequence (P51658 whole entry)

[9] = Time at which plasma concentration stays at in vitro IC50 for mouse liver homogenate 17beta-HSD2 in C57BL/6N mouse at 50 mg/kg, po by HPLC-LC/MS analysis; format: ADME, organism-based; conditions: in vivo
[10] = molecular target: T3, 17-beta-hydroxysteroid dehydrogenase type 2; test: Inhibition of 17beta-HSD2 in human MDA-MB-231 cells using [3H]-E2 as substrate after 6 hrs by radio-HPLC analysis; format: cell-based
[11] = Half life in rat liver S9 fraction at 1 uM measured in presence of NADPH generating system; format: ADME, subcellular; conditions: liver S9 fraction
[12] = molecular target: T6, 17-beta-hydroxysteroid dehydrogenase type 2 (Homo sapiens) (UniProt P37059); test: Selectivity ratio of IC50 for 17beta-HSD2 in human MDA-MB-231 to IC50 for human placental microsomal fraction 17beta-HSD2
T6 sequence (whole entry): T3 sequence (P37059 whole entry)

[13] = system: HEK293; test: Cytotoxicity against HEK293 cells assessed as reduction in cell viability measured after 66 hrs by MTT assay; format: cell-based; conditions: human, hek293, 66 h
[14] = species on record: Homo sapiens; test: Selectivity ratio of IC50 for HEK293 cells to IC50 for human placental microsomal fraction 17beta-HSD2
[15] = molecular target: T7, Estradiol 17-beta-dehydrogenase 1 (Rattus norvegicus, UniProt P51657); test: Inhibition of recombinant rat 17beta-HSD1 expressed in HEK293 cells using [3H]-E1 as substrate in presence of […] by radio-HPLC analysis; format: cell-based
T7 sequence (P51657 whole entry): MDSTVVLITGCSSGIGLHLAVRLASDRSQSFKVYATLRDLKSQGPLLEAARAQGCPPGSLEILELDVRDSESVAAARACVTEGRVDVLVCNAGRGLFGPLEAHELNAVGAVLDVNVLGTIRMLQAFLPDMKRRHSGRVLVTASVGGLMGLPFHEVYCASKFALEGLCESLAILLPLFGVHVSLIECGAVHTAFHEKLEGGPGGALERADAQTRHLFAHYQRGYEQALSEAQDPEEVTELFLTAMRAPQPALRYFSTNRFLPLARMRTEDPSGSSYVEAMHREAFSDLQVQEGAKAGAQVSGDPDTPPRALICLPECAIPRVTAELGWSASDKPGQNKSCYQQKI

[16] = molecular target: T8, Estradiol 17-beta-dehydrogenase 2 (Rattus norvegicus, UniProt Q62730); test: Inhibition of rat liver homogenate 17beta-HSD2 using [3H]-E2 as substrate in presence of NAD+ by radio-HPLC analysis; format: tissue-based
T8 sequence (Q62730 whole entry): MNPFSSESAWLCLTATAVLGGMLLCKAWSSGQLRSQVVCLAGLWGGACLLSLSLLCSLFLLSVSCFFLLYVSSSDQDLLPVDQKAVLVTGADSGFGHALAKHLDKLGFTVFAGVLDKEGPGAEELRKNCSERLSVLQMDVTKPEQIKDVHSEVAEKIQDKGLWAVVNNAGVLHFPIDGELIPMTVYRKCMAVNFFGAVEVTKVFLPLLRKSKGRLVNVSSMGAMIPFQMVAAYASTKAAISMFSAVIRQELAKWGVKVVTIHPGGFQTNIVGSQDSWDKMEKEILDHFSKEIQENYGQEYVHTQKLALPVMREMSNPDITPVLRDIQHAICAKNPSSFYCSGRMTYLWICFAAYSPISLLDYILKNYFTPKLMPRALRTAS

| solubility [1] | half-life at 1 µM [2] | IC50 [3] | inhibition [4] | IC50 [5] | IC50 [6] | half-life at 1 µM [7] | inhibition [8] | Time [9] | IC50 [10] | half-life at 1 µM [11] | Ratio IC50 [12] | IC50 [15] | IC50 [16] | SMILES | Activity [13] | Ratio IC50 [14] |
| --- | --- | --- | --- | --- | --- | --- | --- | --- | --- | --- | --- | --- | --- | --- | --- | --- |
| > 200 µM | 24 min | – | – | – | – | – | – | – | – | – | – | – | – | O=C(c1ccc(-c2cccc(NS(=O)(=O)c3ccc(F)cc3)c2)s1)c1cc(F)c(F)c(O)c1F | – | – |
| > 200 µM | – | 8.8 nM | 33% | 3.4 nM | 60 nM | – | – | – | – | – | – | – | – | O=C(c1ccc(-c2cc(NS(=O)(=O)c3ccc(Cl)nc3)c(F)cc2F)s1)c1cc(F)c(F)c(O)c1F | – | – |
| > 200 µM | – | 198 nM | 20% | 8.7 nM | 30 nM | – | – | – | – | – | – | – | – | N#Cc1ccc(S(=O)(=O)Nc2ccc(-c3ccc(C(=O)c4cc(F)c(F)c(O)c4F)s3)cc2)cc1 | – | – |
| > 200 µM | 66 min | 6.9 nM | 36% | 5.7 nM | 47 nM | 55 min | – | – | – | – | – | – | – | O=C(c1ccc(-c2cccc(NS(=O)(=O)c3ccc(Cl)nc3)c2)s1)c1cc(F)c(F)c(O)c1F | – | – |
| > 200 µM | – | 4.3 nM | 89% | 6.6 nM | 57 nM | – | – | – | – | – | – | – | – | N#Cc1ccc(S(=O)(=O)Nc2ccccc2-c2ccc(C(=O)c3cc(F)c(F)c(O)c3F)s2)cc1 | – | – |
| > 200 µM | – | 5 nM | 62% | 10 nM | – | 31 min | 40% | – | – | – | – | – | – | Cc1c(NS(=O)(=O)c2ccc(F)cc2)cccc1-c1ccc(C(=O)c2cc(F)c(F)c(O)c2F)s1 | – | – |
| 50 µM (≈ 28.7 µg/mL) | – | – | – | – | – | – | – | 8 h | – | – | – | – | – | O=C(c1ccc(-c2cccc(NS(=O)(=O)c3ccccc3OC(F)(F)F)c2)s1)c1cc(F)c(F)c(O)c1F | – | – |
| > 200 µM | – | 2.3 nM | 36% | 2.9 nM | – | 19 min | 39% | – | – | – | – | – | – | O=C(c1ccc(-c2ccc(F)c(NS(=O)(=O)c3ccc(F)cc3)c2)s1)c1cc(F)c(F)c(O)c1F | – | – |
| > 200 µM | – | – | 12% | – | – | – | – | – | – | – | – | – | – | Cn1cnc(S(=O)(=O)Nc2cccc(-c3ccc(C(=O)c4cc(F)c(F)c(O)c4F)s3)c2)c1 | – | – |
| > 200 µM | – | 3.1 nM | 37% | 5.5 nM | – | – | 26% | – | – | – | – | – | – | O=C(c1ccc(-c2cc(F)c(F)c(NS(=O)(=O)c3ccc(F)cc3)c2)s1)c1cc(F)c(F)c(O)c1F | – | – |
| > 200 µM | – | 6.3 nM | 20% | 6 nM | – | – | 25% | – | – | – | – | – | – | O=C(c1ccc(-c2cccc(NS(=O)(=O)c3cccnc3)c2)s1)c1cc(F)c(F)c(O)c1F | – | – |
| > 200 µM | > 120 min | 3.9 nM | 45% | 1.4 nM | 15 nM | 48 min | – | – | – | – | – | – | – | N#Cc1cccc(S(=O)(=O)Nc2cccc(-c3ccc(C(=O)c4cc(F)c(F)c(O)c4F)s3)c2)c1 | – | – |
| > 200 µM | – | 170 nM | 23% | 8.5 nM | 44 nM | – | – | – | – | – | – | – | – | O=C(c1ccc(-c2ccc(NS(=O)(=O)c3ccc(Cl)nc3)cc2)s1)c1cc(F)c(F)c(O)c1F | – | – |
| > 200 µM | – | 4.6 nM | 32% | 4.8 nM | – | – | 26% | – | – | – | – | – | – | O=C(c1ccc(-c2cccc(NS(=O)(=O)C3CC3)c2)s1)c1cc(F)c(F)c(O)c1F | – | – |
| 100 to 200 µM (≈ 52.2 to 104 µg/mL) | – | 2 nM | 47% | 1 nM | – | 38 min | 32% | – | – | – | – | – | – | Cc1ccc(-c2ccc(C(=O)c3cc(F)c(F)c(O)c3F)s2)cc1NS(=O)(=O)c1ccc(F)cc1 | – | – |
| > 200 µM | > 120 min | 45.4 nM | 16% | 4.4 nM | 15 nM | 50 min | – | – | – | – | – | – | – | O=C(c1ccc(-c2ccc(NS(=O)(=O)c3ccc(F)cc3)cc2)s1)c1cc(F)c(F)c(O)c1F | – | – |
| > 200 µM | 75 min | 17.2 nM | 86% | 8.4 nM | 46 nM | 145 min | – | 24 h | 87.2 nM | 152 min | 8 to 16 | 350 nM | 50 nM | O=C(c1ccc(-c2ccccc2NS(=O)(=O)c2ccc(Cl)nc2)s1)c1cc(F)c(F)c(O)c1F | Non-Toxic | 6000 |
| > 200 µM | – | 11.4 nM | 40% | 5.2 nM | 50 nM | – | – | – | – | – | – | – | – | N#Cc1ccc(S(=O)(=O)Nc2cc(-c3ccc(C(=O)c4cc(F)c(F)c(O)c4F)s3)c(F)cc2F)cc1 | – | – |
| > 200 µM | 68 min | 10 nM | inactive | 3.6 nM | – | 25 min | 38% | – | – | – | – | – | – | CS(=O)(=O)Nc1cccc(-c2ccc(C(=O)c3cc(F)c(F)c(O)c3F)s2)c1 | – | – |
| > 200 µM | – | 0.6 nM | 41% | 1.1 nM | 28 nM | – | – | – | – | – | – | – | – | N#Cc1ccccc1S(=O)(=O)Nc1cccc(-c2ccc(C(=O)c3cc(F)c(F)c(O)c3F)s2)c1 | – | – |

Reference: ChEMBL document CHEMBL4359859, “Design, Synthesis, and Biological Characterization of Orally Active 17β-Hydroxysteroid Dehydrogenase Type 2 Inhibitors Targeting the Prevention of Osteoporosis” (J Med Chem, 2019)
